Literature values as cited in patent US20220184087A1, “METHODS AND COMPOSITIONS RELATING TO TREATMENT OF CANCER” (The Penn State Research Foundation, priority 2019, published 2022).

Experiments:
[1] = system: murine head and neck cancer cells
[2] = system: human head and neck cancer cells
MDM4 = biological target: T1, MDM4 (Homo sapiens, UniProt O15151); settings: within p53-binding pocket
T1 sequence (O15151 1-490): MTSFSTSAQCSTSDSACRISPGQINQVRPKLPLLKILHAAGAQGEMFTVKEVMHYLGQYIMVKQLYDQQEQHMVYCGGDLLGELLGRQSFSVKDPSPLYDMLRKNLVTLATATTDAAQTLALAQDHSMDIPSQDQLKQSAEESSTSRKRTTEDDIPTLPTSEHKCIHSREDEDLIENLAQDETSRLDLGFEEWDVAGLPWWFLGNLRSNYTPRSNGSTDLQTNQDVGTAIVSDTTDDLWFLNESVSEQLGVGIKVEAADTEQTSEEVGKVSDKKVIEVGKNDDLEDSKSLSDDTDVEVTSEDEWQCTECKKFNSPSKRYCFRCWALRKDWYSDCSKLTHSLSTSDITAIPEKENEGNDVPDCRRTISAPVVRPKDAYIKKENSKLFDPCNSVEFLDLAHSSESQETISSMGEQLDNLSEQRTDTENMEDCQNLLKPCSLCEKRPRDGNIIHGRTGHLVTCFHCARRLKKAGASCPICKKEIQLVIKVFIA

melanoma = melanoma patients

Compound: C=CCn1c(=O)c2cnc(Nc3ccc(N4CCN(C)CC4)cc3)nc2n1-c1cccc(C(C)(C)O)n1 [MK1775, 2-allyl-1-(6-(2-hydroxypropan-2-yl)pyridin-2-yl)-6-((4-(4-methylpiperazin-1-yl)phenyl)amino)-1H-pyrazolo[3,4-d]pyrimidin-3(2H)-one]
- sensitization to NK lysis [1]: sensitized
- sensitization to NK lysis [2]: sensitized

Compound: CCOc1cc(/C=C2/C(=O)N(c3ccccc3)N=C2C)cc(Cl)c1OCC(=O)OC [SJ-172550]
- binding affinity to MDM4 (MDM4): high affinity

Compound: ipilimumab: anti-CTLA4 immune checkpoint inhibitor antibody
- median PFS (melanoma): 2.9 months

Compound: nivolumab: anti-PD-1 immune checkpoint inhibitor antibody
- median PFS (melanoma): 6.9 months
